Results published in BindingDB's records for doi:10.1021/acs.jmedchem.1c00049 (Genentech, 2021).
pIC50: −log10 of the molar value.

Assays:
[1] = Inhibition of human Nav1.7 expressed in HEK293 cells incubated for 1 hr in presence of veratridine by sodium influx assay
[2] = Displacement of [3H]GX-545 Nav1.7 (unknown origin) expressed in HEK cells by liquid scintillation counting based radioligand competition assay

SMILES | pIC50 [1] | pIC50 [2]
O=C(NS(=O)(=O)C1COC1)c1cc(C2CC2)c(OCC23CC4CC(CC(C4)C2)C3)cc1F | 7.42 | 8.40
CS(=O)(=O)NC(=O)c1cc(C2CC2)c(OCC2CCN(C(c3ccccc3)c3ccccc3)CC2)cc1F | 7.18 | 8.44
CS(=O)(=O)NC(=O)c1cc(C2CC2)c(OCC2CCN(Cc3ccccc3)CC2)cc1F | 5.49 | 6.85
O=C(NS(=O)(=O)C1CC1)c1cc(C2CC2)c(OCC23CC4CC(CC(C4)C2)C3)cc1F [US8952169, 148] | 7.85 | 8.96
O=C(NS(=O)(=O)N1CCCC1)c1cc(C2CC2)c(OCC23CC4CC(CC(C4)C2)C3)cc1F [US8952169, 154] | 6.80 | 8.66
O=C(NS(=O)(=O)N1CCOCC1)c1cc(C2CC2)c(OCC23CC4CC(CC(C4)C2)C3)cc1F [US8952169, 155] | – | 8.64
CS(=O)(=O)NC(=O)c1cc(C2CC2)c(OCC2CN(C(c3ccccc3)c3ccccc3)C2)cc1F [US8952169, 440] | 7.64 | 8.26
CS(=O)(=O)NC(=O)c1cc(C2CC2)c(OCC2CCN(Cc3ccc(Cl)cc3)CC2)cc1F [US9546164, 104] | 7.38 | 7.66
CS(=O)(=O)NC(=O)c1cc(C2CC2)c(OCC2CCN(Cc3ccc(OC(F)(F)F)cc3)CC2)cc1F [US9546164, 135] | 7.51 | 8.11
CS(=O)(=O)NC(=O)c1cc(C2CC2)c(OCC2CCN(Cc3cc(Cl)cc(Cl)c3)CC2)cc1F [US9546164, 139] | 6.92 | 8.62
CC(C)(c1cc(Cl)cc(Cl)c1)N1CCC(COc2cc(F)c(C(=O)NS(C)(=O)=O)cc2C2CC2)CC1 [US9546164, 209] | 7.59 | 9.10
CS(=O)(=O)NC(=O)c1cc(C2CC2)c(OCC2CCN(C(=O)c3cc(Cl)cc(Cl)c3)CC2)cc1F [US9546164, 253] | 7.47 | 8.01
